# Test results as given in patent US11324798B2, “Materials and methods for treatment of inflammation” (CYTOGEL PHARMA, LLC, priority 2010, dated 2022).
# “And” between values parts separate entries of the source, which are not always exact repeats. Equal entries are not always repeated.
# System: CGRP release from isolated rat tracheae
# Experiment: Electrical field stimulation (EFS)-evoked release of CGRP from isolated rat tracheae, radioimmunoassay
# Type: cell-based
# Conditions: for Release of CGRP into the incubation medium / Absolute release of CGRP: individual experiments 1-5; for Release of CGRP into the incubation medium, Mean / Absolute release of CGRP, Mean: mean of 5 experiments
# Protocol: For the in vitro release experiments, a 10 mg/ml (14.62 mM; MW 684) stock solution of CYT-1010 was made in DMSO, which was further diluted with the oxygenated Krebs solution used in the organ bath: 5.5 μl of this CYT-1010 stock solution was added into 40 ml Krebs to make the highest applied 2 μM concentration of compound CYT-1010. Further dilutions to obtain the lower concentrations were prepared with Krebs solution.
# The incubation media containing the respective CYT-1010 concentrations were administered in the stimulated and post-stimulated 8-min fractions.
# Since even the highest, 2 μM, concentration of CYT-1010 solution contained negligible amount of DMSO, simple Krebs solution was used in the control experiments.
# Rats were exsanguinated in deep anaesthesia (sodium thiobarbital, 50 mg/kg i.p.), then the whole trachea was removed and cleaned of fat and adhering connective tissues. Tracheae from two rats were placed into the same 1.8 ml organ bath to obtain sufficient amount of released peptide and perfused (1 ml/min) with pH-(7.2) controlled oxygenized Krebs solution for 60 minutes (equilibration period) at 37° C. temperature. After discontinuation of the flow, the solution was changed three times for eight minutes to produce pre-stimulated, stimulated, post-stimulated fractions.
# Electrical field stimulation (40 V, 0.1 ms, 10 Hz for 120 s; 1200 pulses) was performed to elicit neurotransmitter release at the beginning of the second 8-minute period. Stimulation with 0.1 ms pulse width selectively activates very fast Na^+ channels, which are only present in the membrane of neural structures (Birmingham and Wilson, 1963; Coburn and Tomita 1973; Szolcsányi and Barthó, 1982); therefore, it excites nerve endings without influencing other excitable cells in the tracheae such as smooth muscle cells.
# Krebs solution was used in the pre-stimulated fraction for determining the basal CGRP outflow. During the stimulated and post-stimulated fractions, the incubation medium contained the examined concentrations of CYT-1010 (10, 100, 500, 1000 and 2000 nM) in separate experiments, and only one concentration was applied to the same tracheae to avoid neuropeptide depletion. In each group, 5 experiments were performed in parallel in 5 perfusion systems to provide n=5 data per group (10 tracheae per group).
# 60 male Wistar rats (250-300 g) altogether were divided into 6 experimental groups: Group 1: controls (n=10); Group 2: 10 nM CYT-1010 (n=10); Group 3: 100 nM CYT-1010 (n=10); Group 4: 500 nM CYT-1010 (n=10); Group 5: 1000 nM CYT-1010 (n=10); and Group 6: 2000 nM CYT-1010 (n=10). The total study was performed on three experimental days, two groups every occasion.
# Calcitonin gene-related peptide (CGRP) and substance P (SP) concentrations were determined from 400-400 μl samples of organ fluid of the preparations by means of radioimmunoassay methods described in Nemeth et al., 1996, 1998, 1999, 2006; Helyes et al., 1997, 2001, 2006; Borzsei et al., 2008). Each of these publications is incorporated herein by reference in its entirety.
# The released amount of the peptides CGRP and SP was calculated as fmol peptide per mg wet tissue (trachea). The absolute release in response to EFS in each experiment was calculated by adding peptide release in the second and third 8-min fractions and then taking off the basal release measured in the first (pre-stimulated) fraction. The detection limits of the RIA assays were 0.2 fmol/tube and 2 fmol/tube for CGRP and SP, respectively.
structure (smiles),measurement,setting,value
"NC(Cc1ccc(O)cc1)C(=O)NC1CCCCNC(=O)C(Cc2ccccc2)NC(=O)C(Cc2c[nH]c3ccccc23)NC1=O [CYT-1010, H-Tyr-c-[D-Lys-Trp-Phe]]","Effect on CGRP release in the third, post-stimulated fraction",10 nM,did not influence
same,"CGRP release, % increase above baseline","10 nM, after stimulation",105.75%
same,Release of CGRP into the incubation medium,"10 nM, after stimulation (post-stimulated 8-min fraction)",0.602 fmol/mg wet tissue and 0.730 fmol/mg wet tissue and 0.193 fmol/mg wet tissue and 0.204 fmol/mg wet tissue and 0.528 fmol/mg wet tissue
same,"Release of CGRP into the incubation medium, Mean","10 nM, after stimulation (post-stimulated fraction)",0.451 fmol/mg wet tissue
same,"CGRP release, % increase above baseline","10 nM, before stimulation",0.00%
same,Release of CGRP into the incubation medium,"10 nM, before stimulation (pre-stimulated 8-min fraction)",0.220 fmol/mg wet tissue and 0.250 fmol/mg wet tissue and 0.146 fmol/mg wet tissue and 0.256 fmol/mg wet tissue and 0.226 fmol/mg wet tissue
same,"Release of CGRP into the incubation medium, Mean","10 nM, before stimulation (pre-stimulated fraction)",0.219 fmol/mg wet tissue
same,"CGRP release, % increase above baseline","10 nM, during stimulation",105.75%
same,Release of CGRP into the incubation medium,"10 nM, during stimulation (stimulated 8-min fraction)",0.600 fmol/mg wet tissue and 0.420 fmol/mg wet tissue and 0.299 fmol/mg wet tissue and 0.308 fmol/mg wet tissue and 0.630 fmol/mg wet tissue
same,"Release of CGRP into the incubation medium, Mean","10 nM, during stimulation (stimulated fraction)",0.451 fmol/mg wet tissue
same,Absolute release of CGRP,10 nM,0.762 fmol/mg wet tissue and 0.650 fmol/mg wet tissue and 0.201 fmol/mg wet tissue and 0.001 fmol/mg wet tissue and 0.706 fmol/mg wet tissue
same,"Absolute release of CGRP, Mean",10 nM,0.464 fmol/mg wet tissue
same,"CGRP release, % increase above baseline","100 nM, after stimulation",39.26%
same,Release of CGRP into the incubation medium,"100 nM, after stimulation (post-stimulated 8-min fraction)",0.284 fmol/mg wet tissue and 0.135 fmol/mg wet tissue and 0.267 fmol/mg wet tissue and 0.231 fmol/mg wet tissue and 0.226 fmol/mg wet tissue
same,"Release of CGRP into the incubation medium, Mean","100 nM, after stimulation (post-stimulated fraction)",0.229 fmol/mg wet tissue
same,"CGRP release, % increase above baseline","100 nM, before stimulation",0.00%
same,Release of CGRP into the incubation medium,"100 nM, before stimulation (pre-stimulated 8-min fraction)",0.243 fmol/mg wet tissue and 0.129 fmol/mg wet tissue and 0.128 fmol/mg wet tissue and 0.138 fmol/mg wet tissue and 0.183 fmol/mg wet tissue
same,"Release of CGRP into the incubation medium, Mean","100 nM, before stimulation (pre-stimulated fraction)",0.164 fmol/mg wet tissue
same,"CGRP release, % increase above baseline","100 nM, during stimulation",184.81%
same,Release of CGRP into the incubation medium,"100 nM, during stimulation (stimulated 8-min fraction)",0.586 fmol/mg wet tissue and 0.281 fmol/mg wet tissue and 0.526 fmol/mg wet tissue and 0.390 fmol/mg wet tissue and 0.554 fmol/mg wet tissue
same,"Release of CGRP into the incubation medium, Mean","100 nM, during stimulation (stimulated fraction)",0.468 fmol/mg wet tissue
same,Absolute release of CGRP,100 nM,0.384 fmol/mg wet tissue and 0.159 fmol/mg wet tissue and 0.538 fmol/mg wet tissue and 0.344 fmol/mg wet tissue and 0.415 fmol/mg wet tissue
same,"Absolute release of CGRP, Mean",100 nM,0.368 fmol/mg wet tissue
same,Inhibition of EFS-evoked absolute CGRP release,"500 nM (maximal effect), 0.5 µM",69.9% and 70%
same,"CGRP release, % increase above baseline","500 nM, after stimulation",48.89%
same,Release of CGRP into the incubation medium,"500 nM, after stimulation (post-stimulated 8-min fraction)",0.137 fmol/mg wet tissue and 0.206 fmol/mg wet tissue and 0.267 fmol/mg wet tissue and 0.224 fmol/mg wet tissue and 0.213 fmol/mg wet tissue
same,"Release of CGRP into the incubation medium, Mean","500 nM, after stimulation (post-stimulated fraction)",0.210 fmol/mg wet tissue
same,"CGRP release, % increase above baseline","500 nM, before stimulation",0.00%
same,Release of CGRP into the incubation medium,"500 nM, before stimulation (pre-stimulated 8-min fraction)",0.136 fmol/mg wet tissue and 0.148 fmol/mg wet tissue and 0.146 fmol/mg wet tissue and 0.118 fmol/mg wet tissue and 0.157 fmol/mg wet tissue
same,"Release of CGRP into the incubation medium, Mean","500 nM, before stimulation (pre-stimulated fraction)",0.141 fmol/mg wet tissue
same,"CGRP release, % increase above baseline","500 nM, during stimulation",70.52%
same,Release of CGRP into the incubation medium,"500 nM, during stimulation (stimulated 8-min fraction)",0.162 fmol/mg wet tissue and 0.301 fmol/mg wet tissue and 0.304 fmol/mg wet tissue and 0.192 fmol/mg wet tissue and 0.241 fmol/mg wet tissue
same,"Release of CGRP into the incubation medium, Mean","500 nM, during stimulation (stimulated fraction)",0.240 fmol/mg wet tissue
same,Absolute release of CGRP,500 nM,0.028 fmol/mg wet tissue and 0.212 fmol/mg wet tissue and 0.279 fmol/mg wet tissue and 0.181 fmol/mg wet tissue and 0.140 fmol/mg wet tissue
same,"Absolute release of CGRP, Mean",500 nM,0.168 fmol/mg wet tissue
same,Inhibition of EFS-evoked absolute CGRP release,"1000 nM, 1 µM",66.3% and 66%
same,Inhibition of EFS-evoked absolute CGRP release,2000 nM,49.1%
same,"CGRP release, % increase above baseline","1 microM, after stimulation",29.82%
same,Release of CGRP into the incubation medium,"1 microM, after stimulation (post-stimulated 8-min fraction)",0.386 fmol/mg wet tissue and 0.162 fmol/mg wet tissue and 0.130 fmol/mg wet tissue (2×) and 0.121 fmol/mg wet tissue
same,"Release of CGRP into the incubation medium, Mean","1 microM, after stimulation (post-stimulated fraction)",0.186 fmol/mg wet tissue
same,"CGRP release, % increase above baseline","1 microM, before stimulation",00.0%
same,Release of CGRP into the incubation medium,"1 microM, before stimulation (pre-stimulated 8-min fraction)",0.262 fmol/mg wet tissue and 0.135 fmol/mg wet tissue and 0.108 fmol/mg wet tissue (2×) and 0.102 fmol/mg wet tissue
same,"Release of CGRP into the incubation medium, Mean","1 microM, before stimulation (pre-stimulated fraction)",0.143 fmol/mg wet tissue
same,"CGRP release, % increase above baseline","1 microM, during stimulation",101.59%
same,Release of CGRP into the incubation medium,"1 microM, during stimulation (stimulated 8-min fraction)",0.510 fmol/mg wet tissue and 0.433 fmol/mg wet tissue and 0.170 fmol/mg wet tissue (2×) and 0.161 fmol/mg wet tissue
same,"Release of CGRP into the incubation medium, Mean","1 microM, during stimulation (stimulated fraction)",0.289 fmol/mg wet tissue
same,Absolute release of CGRP,1 microM,0.371 fmol/mg wet tissue and 0.325 fmol/mg wet tissue and 0.083 fmol/mg wet tissue (2×) and 0.077 fmol/mg wet tissue
same,"Absolute release of CGRP, Mean",1 microM,0.188 fmol/mg wet tissue
same,"CGRP release, % increase above baseline","2 microM, after stimulation",−4.59%
same,Release of CGRP into the incubation medium,"2 microM, after stimulation (post-stimulated 8-min fraction)",0.200 fmol/mg wet tissue and 0.161 fmol/mg wet tissue and 0.133 fmol/mg wet tissue and 0.018 fmol/mg wet tissue and 0.167 fmol/mg wet tissue
same,"Release of CGRP into the incubation medium, Mean","2 microM, after stimulation (post-stimulated fraction)",0.136 fmol/mg wet tissue
same,"CGRP release, % increase above baseline","2 microM, before stimulation",0.00%
same,Release of CGRP into the incubation medium,"2 microM, before stimulation (pre-stimulated 8-min fraction)",0.102 fmol/mg wet tissue and 0.231 fmol/mg wet tissue and 0.097 fmol/mg wet tissue and 0.148 fmol/mg wet tissue and 0.134 fmol/mg wet tissue
same,"Release of CGRP into the incubation medium, Mean","2 microM, before stimulation (pre-stimulated fraction)",0.142 fmol/mg wet tissue
same,"CGRP release, % increase above baseline","2 microM, during stimulation",204.09%
same,Release of CGRP into the incubation medium,"2 microM, during stimulation (stimulated 8-min fraction)",0.198 fmol/mg wet tissue and 0.584 fmol/mg wet tissue and 0.388 fmol/mg wet tissue and 0.645 fmol/mg wet tissue and 0.353 fmol/mg wet tissue
same,"Release of CGRP into the incubation medium, Mean","2 microM, during stimulation (stimulated fraction)",0.433 fmol/mg wet tissue
same,Absolute release of CGRP,2 microM,0.192 fmol/mg wet tissue and 0.284 fmol/mg wet tissue and 0.326 fmol/mg wet tissue and 0.366 fmol/mg wet tissue and 0.253 fmol/mg wet tissue
same,"Absolute release of CGRP, Mean",2 microM,0.284 fmol/mg wet tissue
same,Effect on stimulation-evoked CGRP release,10-2000 nM added to the second and third fractions,significantly inhibited
same,"Effect on CGRP release in the third, post-stimulated fraction",100 and 500 nM,significantly inhibited
same,EC50,"sigmoidal concentration-response curve, non-linear least square fit, 10-2000 nM, read-out: EC50 for inhibition of electrically-evoked CGRP release",40.6 nM
same,"Effect on CGRP release in the third, post-stimulated fraction",two highest concentrations (1000 and 2000 nM),abolished
